Reference: US8178530B2, “Imidazolopyrazine compounds useful for the treatment of degenerative and inflammatory diseases” (Janssen Pharmaceutica NV, priority 2006, dated 2012)

How the values were obtained:
[1] = target: T1, MAPKAPK5 (Homo sapiens, UniProt Q8IW41); assay: MAPKAP-K5 assay (FlashPlate, 33P-ATP); assay type: biochemical; details: 0.6 μM ATP, 30 minutes at room temperature
T1 construct: 1 mU MAPKAP-K5
T1 sequence (Q8IW41 1-473): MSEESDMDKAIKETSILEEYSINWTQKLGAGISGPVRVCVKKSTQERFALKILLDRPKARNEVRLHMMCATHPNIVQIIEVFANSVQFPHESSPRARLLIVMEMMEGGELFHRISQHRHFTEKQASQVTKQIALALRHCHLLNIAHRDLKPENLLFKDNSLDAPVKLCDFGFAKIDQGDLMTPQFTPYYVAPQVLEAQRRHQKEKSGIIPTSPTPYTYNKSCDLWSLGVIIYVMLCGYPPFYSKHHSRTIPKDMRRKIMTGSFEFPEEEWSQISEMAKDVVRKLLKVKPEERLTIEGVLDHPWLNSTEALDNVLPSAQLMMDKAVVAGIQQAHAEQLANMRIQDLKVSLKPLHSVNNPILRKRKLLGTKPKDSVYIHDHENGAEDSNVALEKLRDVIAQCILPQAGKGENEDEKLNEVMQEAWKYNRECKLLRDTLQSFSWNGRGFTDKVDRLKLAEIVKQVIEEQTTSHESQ
Experimental: 3 μM MAPKAP-K5 peptide substrate

[2] = system: MMP1 expression by SFs; assay: 'MMP assay': MMP1 expression by 'complex trigger' activated synovial fibroblasts (MMP1 ELISA); assay type: cell-based, human; details: Homo sapiens, Fibroblast, RASFs, 48 hrs
Experimental: A 384-well format ELISA for measurement of MMP1 is developed. Various primary antibodies are tested, as well as various ELISA protocols. The following protocol is developed and validated to measure MMP1 levels in SF supernatant in 384 well plates: white Lumitrac 600 384 well plates (Greiner) are coated with 2 μg/mL anti-MMP1 antibody MAB1346 (Chemicon). The antibody is diluted in buffer 40 (1.21 g Tris base (Sigma), 0.58 g NaCl (Calbiochem) and 5 ml 10% NaN3 (Sigma) in 1 L milliQ water and adjusted to pH 8.5). After overnight incubation at 4° C., plates are washed with PBS (80 g NaCl, 2 g KCl (Sigma), 11.5 g Na2HPO4.7H2O and 2 g KH2PO4 in 10 L milliQ; pH 7.4) and blocked with 100 μL/well Casein buffer (2% Casein (VWR International) in PBS). Next day, casein buffer is removed from ELISA plates and replaced by 50 μL/well EC buffer (4 g casein, 2.13 g Na2HPO4 (Sigma), 2 g bovine albumin (Sigma), 0.69 g NaH2PO4.H2O (Sigma), 0.5 g CHAPS (Roche), 23.3 g NaCl, 4 mL 0.5 M EDTA pH 8 (Invitrogen), 5 mL 10% NaN3 in 1 L milliQ and adjusted to pH 7.0). 0.25 mM DTT (Sigma) is added to the thawed samples plates. After removal of the EC buffer, 20 μL of sample is transferred to the ELISA plates. After overnight incubation at 4° C. plates are washed twice with PBS and once with PBST (PBS with 0.05% Tween-20 (Sigma)) and incubated with 35 μL/well biotinylated anti-MMP1 antibody solution (R&D). This secondary antibody is diluted in buffer C (0.82 g NaH2PO4.H2O, 4.82 g Na2HPO4, 46.6 g NaCl, 20 g bovine albumin and 4 mL 0.5M EDTA pH 8 in 2 L milliQ and adjusted to pH 7.0) at a concentration of 5 μg/mL. After 2 h of incubation at RT, plates are washed as described above and incubated with 50 μL/well streptavidin-HRP conjugate (Biosource). Streptavidin-HRP conjugate is diluted in buffer C at a concentration of 0.25 μg/mL. After 45 min, plates are washed as described above and incubated for 5 min with 50 μL/well BM Chem ELISA Substrate (Roche). Readout is performed on the Luminoscan Ascent Luminometer (Labsystems) with an integration time of 200 msec or with an Envision reader (Perkin Elmer).
The increase of MMP1 expression by SFs upon treatment with cytokines relevant in the field of RA (TNF-α, IL1β and OSM) or a combination thereof is shown in FIG. 2 as white bars. For this experiment, SFs are seeded in 96 well plates, 3,000 cells/well. 24 h later, the medium is changed to M199 medium supplemented with 1% FBS. One day after the medium change, cytokines or combinations thereof are added to the cultures, each cytokine being added to a final concentration of 25 ng/mL. 72 h after cytokine addition, the supernatant is collected and processed in the MMP1 ELISA as described in the protocol given above. In parallel with this experiment, SFs are triggered, using the same protocol, with the supernatant of THP1 cells (2-fold diluted in M199+1% FBS) treated with the same cytokines or combinations of cytokines for 48 h in M199 medium+1% FBS. The induction of the MMP1 expression by SFs triggered with the supernatants of TNF-α-treated THP1 cells is stronger (>4.5 fold induction) as compared to the SFs triggered with recombinant TNF-α alone (3-fold induction) and almost equals the 5-fold induction obtained by a mixture of 3 purified cytokines (TNF-α, IL1βb, OSM). […] As the role of TNF-α in the RA pathogenesis is validated (TNF-α-blockers such as Infliximab and Etanercept show some efficacy in the treatment of RA patients) and the THP-1 cells are representative for monocytes/macrophages present in the joint of RA patients, the TNF-α-based trigger mixture prepared by contacting THP-1 cells with TNF-α will contain factors present in the joints of RA patients and subsequently is relevant to RA. This TNF-α-based complex trigger, further referred to as the ‘complex trigger’, will further be used as basis for the ‘MMP assay’.
Dexamethasone is shown to dose-dependently reduce amounts of MMP1 produced by complex trigger activated SFs. […]

| Structure (SMILES) | IC50 [1] | EC50 [2] |
| --- | --- | --- |
| CS(=O)(=O)Nc1ccc(Nc2ncc(-c3cn[nH]c3)n3ccnc23)cc1 [Compound 30] | 0.501 to 1 µM | > 1 µM |
| Cc1cnc2c(Nc3ccc(N4CCOCC4)cc3)ncc(-c3cc[nH]c(=O)c3)n12 [Compound 135] | > 1 µM | > 1 µM |
| NC(=O)c1cc(Nc2ncc(-c3cc(F)c(C(N)=O)c(F)c3)n3ccnc23)ccc1N1CCOCC1 [Compound 175, 4-[8-(3-Carbamoyl-4-morpholin-4-yl-phenylamino)-imidazo[1,2-a]pyrazin-5-yl]-2,6-difluoro-benzamide] | 0.101 to 0.5 µM | 0.501 to 1 µM |
| CCN(CC)CCNC(=O)c1ccc(Nc2ncc(-c3ccnn3C)n3ccnc23)cc1 [Compound 88] | > 1 µM | > 1 µM |
| NC(=O)c1ccc(Nc2ncc(-c3ccc(C(=O)O)cc3)n3ccnc23)cc1 [Compound 52] | > 1 µM | > 1 µM |
| CC(C)N1CCN(c2ccc(Nc3ncc(-c4ccc5c(c4)C(C)(C)NC5=O)n4ccnc34)cc2)CC1 [Compound 227] | > 1 µM | > 1 µM |
| CC(C)N1CCC(c2ccc(Nc3ncc(-c4csc(C(N)=O)c4)n4ccnc34)cc2)CC1 [Compound 199, 4-{8-[4-(1-Isopropylpiperidin-4-yl)phenyl-amino]imidazo[1,2-a]pyrazin-5-yl}thiophene-2-carboxylic acid amide] | 0.101 to 0.5 µM | 0.101 to 0.5 µM |
| Nc1ccc(Nc2ncc(-c3cn[nH]c3)n3ccnc23)cn1 [Compound 207] | 0.501 to 1 µM | > 1 µM |
| CC(C)N1CCN(c2ncc(Nc3ncc(-c4ccc5c(c4)CNC5=O)n4ccnc34)cn2)CC1 [Compound 219] | 0.101 to 0.5 µM | 0.501 to 1 µM |
| Cc1cnc2c(Nc3ccc(N4CCOCC4)cc3)ncc(-c3ccc(C(N)=O)cc3)n12 [Compound 130, 4-[3-Methyl-8-(4-morpholin-4-ylphenylamino)imidazo[1,2-a]pyrazin-5-yl]benzamide] | > 1 µM | > 1 µM |
| NC(=O)c1ccc(Nc2ncc(-c3cn[nH]c3)n3cc(Br)nc23)cc1 [Compound 37] | > 1 µM | > 1 µM |
| NC(=O)c1c(F)cc(-c2cnc(Nc3ccc(OCCN4CCOCC4)cc3)c3nccn23)cc1F [Compound 216] | 0.501 to 1 µM | > 1 µM |
| CN1CCN(c2ccc(Nc3ncc(-c4ccc(C(N)=O)cc4)n4ccnc34)cc2)CC1 [Compound 26] | 0.501 to 1 µM |  |
| NC(=O)c1ccc(-c2cnc(Nc3ccc4[nH]ccc4c3)c3nccn23)cc1 [Compound 28] | > 1 µM | 0.501 to 1 µM |
| O=c1cc(-c2cnc(Nc3ccc(N4CCOCC4)cc3)c3nccn23)cc(C(F)(F)F)[nH]1 [Compound 161, 6-Trifluoromethyl-4-[8-(4-morpholin-4-ylphenylamino)imidazo[1,2-a]pyrazin-5-yl]-1H-pyridin-2-one] | > 1 µM | > 1 µM |
| CCc1cnc2c(Nc3ccc(N4CCOCC4)cc3)ncc(-c3cc[nH]c(=O)c3)n12 [Compound 180] | > 1 µM |  |
| CCc1cnc2c(Nc3ccc(N4CCOCC4)cc3)ncc(-c3cn[nH]c3)n12 [Compound 189, [3-Ethyl-5-(1H-pyrazol-4-yl)imidazo[1,2-a]pyrazin-8-yl]-(4-morpholin-4-yl-phenyl)amine] |  | 0.501 to 1 µM |
| CCN(CCO)c1ccc(Nc2ncc(-c3ccc(O)cc3C)n3ccnc23)cc1 [Compound 3] | > 1 µM |  |
| COc1cc(Nc2ncc(-c3cn[nH]c3)n3ccnc23)ccc1C(=O)NCc1ccc(C)nc1 [Compound 184, 2-Methoxy-N-(6-methylpyridin-3-ylmethyl)-4-[5-(1H-pyrazol-4-yl)imidazo[1,2-a]pyrazin-8-ylamino]benzamide] |  | 0.101 to 0.5 µM |
| O=C1NCc2cc(-c3cnc(Nc4cncnc4)c4nccn34)ccc21 [Compound 230] | 0.101 to 0.5 µM |  |
| c1cn2c(-c3cn[nH]c3)cnc(NCc3ccc(N4CCOCC4)cc3)c2n1 [Compound 8] | > 1 µM |  |
| CC(C)N1CCN(c2ccc(Nc3ncc(-c4cc5c(s4)C(=O)NC5)n4ccnc34)cc2)CC1 [Compound 228] | 0.101 to 0.5 µM |  |
